Patent publication US11882828B2, “Mosquito vector control compositions, methods and products utilizing same” (priority 2015, dated 2024)

How the values were obtained:
[1] = tested on: Aedes aegypti (Yellow fever mosquito); test: whole plant or invertebrate; conditions: Aedes aegypti
Method: […] Once the deposits were dry, five non-blood fed adult female Aedes aegypti (between two to five days old) were added to each well, and sustained with a 10% sucrose solution in a cotton wool plug. Assessment of the knockdown after 1 hour, and mortality after 48 hours was carried out.
(§1) In case of multiple tests, the mean value is reported.

[2] = tested on: Anopheles stephensi (Indian malaria mosquito); test: whole plant or invertebrate; conditions: Anopheles stephensi
Method: […] Once the deposits were dry, five non-blood fed adult female Anopheles stephensi (between two to five days old) were added to each well, and sustained with a 10% sucrose solution in a cotton wool plug. Assessment of the knockdown after 1 hour, and mortality after 48 hours was carried out.
as §1

Aedes aegypti [3] = test: whole plant or invertebrate; conditions: Aedes aegypti, 48 h
Summary of the method: (§2)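 Non-blood-fed adult females (2–5 days old), ten per well, were placed on dried ethanol deposits of the test compound at a defined concentration and fed 10% sucrose. Mortality was scored at 48 hours as the mean of two replicates.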

Anopheles stephensi [4] = test: whole plant or invertebrate; conditions: Anopheles stephensi, 48 h
Summary of the method: as §2

Ae. Aegypti New Orleans = test: Example B4: cross resistance study, 6-well plate; assay type: in vivo
Method: (§3) In each study, a set of plates were infested with a known insecticide susceptible strain of mosquitoes from the same genera as the resistant strains.
(§4) Assessment of the knockdown after 60 minutes and mortality after 24 hours was carried out. Each treatment was replicated a minimum of four times, with the mean knockdown or mortality recorded.
(§5) A comparison of the knockdown and mortality of the resistant strain of mosquitoes was made to that of the susceptible to identify evidence of cross resistance.

Ae. aegypti Caymon = test: Example B4: cross resistance study, 6-well plate; assay type: in vivo
Method: as §3, §4, §5

An. Arabiensis Moz sus = test: Example B4: cross resistance study, 6-well plate; assay type: in vivo
Method: as §3, §4, §5

An. Arabiensis Ndjamina = test: Example B4: cross resistance study, 6-well plate; assay type: in vivo
Method: as §3, §4, §5

An. Gambiae Kisumu rdl = test: Example B4: cross resistance study, 6-well plate; assay type: in vivo
Method: as §3, §4, §5

An. Gambiae Kisumu sus [5] = test: Example B4: cross resistance study, 6-well plate; assay type: in vivo
Method: as §3, §4, §5

An. Gambiae Tiassalé [6] = test: Example B4: cross resistance study, 6-well plate; assay type: in vivo
Method: as §3, §4, §5

An. stephensi [7] = test: Example B4: cross resistance study, 6-well plate; assay type: in vivo
Method: as §3, §4, §5

An. Gambiae Kisumu sus [8] = test: Example B5: bottle based cross resistance study (CDC bottle assay); assay type: in vivo
An. Gambiae Tiassalé [9] = test: as above; assay type: in vivo
An. stephensi [10] = test: as above; assay type: in vivo
Aedes aegypti [11] = test: Example B7: evaluation of insecticide impregnated polymer surfaces; assay type: in vivo; conditions: AI content 2 wt %, polymer 4 to 6 weeks old, after one hour
Summary of the method: (§6)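 Methoxyacrylates were melt-blended into LDPE, HDPE or PP and moulded into sheets about 0.1 mm thick. Ten 3–5-day-old non-blood-fed adult females were held 24 h on 10% sucrose, then confined in a Petri dish under the treated sheet for 1 h. Knockdown was scored at 1 h and mortality 24 h after exposure.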

Anopheles stephensi [12] = test: as above; assay type: in vivo; conditions: AI content 2 wt %, after one hour
Summary of the method: as §6

## CO/C=C(/C(=O)OC)c1ccccc1Oc1nnc(C(F)(F)F)s1 [Compound 6, Methyl (E)-3-methoxy-2-[2-[[5-(trifluoromethyl)-1,3,4-thiadiazol-2-yl]oxy]phenyl]-prop-2-enoate]
[1]; 1 h, read-out: Knockdown
  pest or weed control at 20 ppm: 100%
[1]; 48 h
  mortality at 20 ppm: 100%
[2]; 1 h, read-out: Knockdown
  pest or weed control at 20 ppm: 100%
[2]; 48 h
  mortality at 20 ppm: 100%
Aedes aegypti [3]
  mortality at 5 ppm: 66%
Anopheles stephensi [4]
  mortality at 5 ppm: 98%
Ae. Aegypti New Orleans; 2.00 ppm, after 60 minutes, New Orleans
  Knockdown: 95%
Ae. Aegypti New Orleans; Aedes aegypti, 24 h
  mortality at 2 ppm: 100%
Ae. aegypti Caymon; 2.00 ppm, after 60 minutes, Caymon
  Knockdown: 5%
Ae. aegypti Caymon; Aedes aegypti, 24 h
  mortality at 2 ppm: 63%
An. Arabiensis Moz sus; 2.00 ppm, after 60 minutes, Moz sus
  Knockdown: 90%
An. Arabiensis Moz sus; Anopheles arabiensis, 24 h
  mortality at 2 ppm: 100%
An. Arabiensis Ndjamina; 2.00 ppm, after 60 minutes, Ndjamina
  Knockdown: 100%
An. Arabiensis Ndjamina; Anopheles arabiensis, 24 h
  mortality at 2 ppm: 100%
An. Gambiae Kisumu rdl; 2.00 ppm, after 60 minutes, Kisumu rdl
  Knockdown: 78%
An. Gambiae Kisumu rdl; Anopheles gambiae, 24 h
  mortality at 2 ppm: 89%
An. Gambiae Kisumu sus [5]; 2.00 ppm, after 60 minutes, Kisumu sus
  Knockdown: 86%
An. Gambiae Kisumu sus [5]; Anopheles gambiae, 24 h
  mortality at 2 ppm: 100%
An. Gambiae Tiassalé [6]; 2.00 ppm, after 60 minutes, Tiassalé
  Knockdown: 84%
An. Gambiae Tiassalé [6]; Anopheles gambiae, 24 h
  mortality at 2 ppm: 94%
An. stephensi [7]; 2.00 ppm, after 60 minutes, An. stephensi
  Knockdown: 100%
An. stephensi [7]; Anopheles stephensi, 24 h
  mortality at 2 ppm: 100%
An. Gambiae Kisumu sus [8]; 20 ppm, bottle, Kisumu sus
  Knockdown (%) at 15 mins: 100%
  Knockdown (%) at 60 mins: 100%
An. Gambiae Kisumu sus [8]; Anopheles gambiae
  mortality at 20 ppm: 100%
An. Gambiae Tiassalé [9]; 20 ppm, bottle, Tiassalé
  Knockdown (%) at 15 mins: 93%
  Knockdown (%) at 60 mins: 98%
An. Gambiae Tiassalé [9]; Anopheles gambiae
  mortality at 20 ppm: 91%
An. stephensi [10]; 20 ppm, bottle, An. stephensi
  Knockdown (%) at 15 mins: 83%
  Knockdown (%) at 60 mins: 100%
An. stephensi [10]; Anopheles stephensi
  mortality at 20 ppm: 100%
Aedes aegypti [11]; HDPE
  knock-down: 87%
Aedes aegypti [11]; LDPE
  knock-down: 100%
Aedes aegypti [11]; PP
  knock-down: 83%
Anopheles stephensi [12]; HDPE, polymer 4 to 6 weeks old
  knock-down: 87%
Anopheles stephensi [12]; HDPE, polymer 6 to 8 weeks old
  knock-down: 100%
Anopheles stephensi [12]; LDPE, polymer 4 to 6 weeks old
  knock-down: 97%
Anopheles stephensi [12]; LDPE, polymer 6 to 8 weeks old
  knock-down: 100%
Anopheles stephensi [12]; PP, polymer 4 to 6 weeks old
  knock-down: 100%
Anopheles stephensi [12]; PP, polymer 6 to 8 weeks old
  knock-down: 90%
